We go through 8 molecules from ChEMBL document CHEMBL4145572, “Non-covalent Small-Molecule Kelch-like ECH-Associated Protein 1-Nuclear Factor Erythroid 2-Related Factor 2 (Keap1-Nrf2) Inhibitors and Their Potential for Targeting Central Nervous System Diseases” (J Med Chem, 2018).

The nature of series [1]: Ratio of unbound drug level in Mdr1a/1b/Bcrp knock-out mouse brain to plasma. The series is classed as ADME. Particulars: read-out: K(p,uu,brain).
A short description of series [2]: Ratio of unbound drug level in mouse brain to plasma. The series is classed as ADME. Particulars: read-out: K(p,uu,brain).
The target in series [3] is T1, Kelch-like ECH-associated protein 1 (Homo sapiens, UniProt Q14145). Nature of the series: Inhibition of human Keap1 kelch domain (321 to 609 residues) binding to TAMRA-labeled Nrf2-ETGE peptide after 1 hr by fluorescence polarization assay. (Fluorescence polarisation rises when a labelled molecule tumbles more slowly, as on binding a larger partner.)
T1 sequence (Q14145 whole entry, the tested form may be a part): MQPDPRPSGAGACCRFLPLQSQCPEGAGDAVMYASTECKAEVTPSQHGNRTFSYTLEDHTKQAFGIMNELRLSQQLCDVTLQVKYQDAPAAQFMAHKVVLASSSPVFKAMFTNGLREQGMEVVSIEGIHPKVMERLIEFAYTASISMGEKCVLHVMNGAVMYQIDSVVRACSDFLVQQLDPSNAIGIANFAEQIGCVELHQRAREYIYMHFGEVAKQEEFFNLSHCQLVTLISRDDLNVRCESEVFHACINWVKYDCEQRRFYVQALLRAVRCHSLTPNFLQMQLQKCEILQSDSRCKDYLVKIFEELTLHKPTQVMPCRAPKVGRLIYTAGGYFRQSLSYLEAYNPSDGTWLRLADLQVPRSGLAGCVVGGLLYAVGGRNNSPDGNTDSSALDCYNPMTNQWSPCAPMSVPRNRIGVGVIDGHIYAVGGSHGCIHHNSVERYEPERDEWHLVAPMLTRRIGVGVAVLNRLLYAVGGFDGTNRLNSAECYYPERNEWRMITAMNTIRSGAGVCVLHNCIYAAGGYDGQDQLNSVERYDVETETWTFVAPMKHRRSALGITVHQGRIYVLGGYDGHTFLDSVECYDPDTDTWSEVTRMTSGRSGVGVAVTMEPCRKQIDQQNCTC
The target in series [4] is T2, Keap1/Nrf2 (Homo sapiens, UniProt Q14145). Briefly: Inhibition of Keap1/NRF2 interaction in human BEAS-2B cells assessed as upregulation of NQ01 after 48 hrs by MTT assay. The series is classed as cell-based.
T2 sequence (Q16236 whole entry, the tested form may be a part): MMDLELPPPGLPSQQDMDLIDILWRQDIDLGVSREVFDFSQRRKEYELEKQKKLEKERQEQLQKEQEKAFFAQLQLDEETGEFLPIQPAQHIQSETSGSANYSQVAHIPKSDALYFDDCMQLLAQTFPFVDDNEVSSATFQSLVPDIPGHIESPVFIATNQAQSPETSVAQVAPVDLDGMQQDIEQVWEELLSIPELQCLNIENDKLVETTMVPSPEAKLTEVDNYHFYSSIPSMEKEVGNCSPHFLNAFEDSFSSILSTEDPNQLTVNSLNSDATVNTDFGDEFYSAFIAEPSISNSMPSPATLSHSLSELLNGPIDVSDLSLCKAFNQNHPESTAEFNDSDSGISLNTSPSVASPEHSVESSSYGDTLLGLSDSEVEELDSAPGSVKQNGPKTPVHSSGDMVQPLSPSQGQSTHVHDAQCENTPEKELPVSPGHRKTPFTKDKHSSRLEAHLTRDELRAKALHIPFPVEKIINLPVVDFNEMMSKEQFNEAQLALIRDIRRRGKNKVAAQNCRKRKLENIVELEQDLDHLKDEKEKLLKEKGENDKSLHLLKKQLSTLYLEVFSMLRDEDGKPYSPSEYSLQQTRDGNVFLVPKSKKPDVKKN
T2 sequence (Q14145 whole entry, the tested form may be a part): as the sequence (Q14145 whole entry, the tested form may be a part) above
Series [5] deals with T2, Keap1/Nrf2. Nature of the series: Inhibition of full length Flag/His-tagged Keap1 kelch domain (unknown origin)/full length Avi-tagged Nrf2 (unknown origin) interaction after 2.25 hrs by TR-FRET assay. The series is classed as protein assay.
In series [6] the test system is MDR1. Briefly: Efflux ratio of apparent permeability in MDCK-MDR1 cells at 10 uM up to 120 mins. The series is classed as ADME, cell-based, Canis lupus familiaris. Particulars: dog.
In series [7] the target is T2, Keap1/Nrf2. Briefly: Inhibition of Keap1 kelch domain (unknow origin)/Nrf2-ETGE peptide (unknown origin) interaction by fluorescence polarization assay. The series is classed as protein assay.
For series [8], the target named is T1, Kelch-like ECH-associated protein 1. Nature of the series: Activation of human GST-tagged Keap1-DC (321 to 609 residues) expressed in human Huh transformed cells after 16 hrs by ARE-based steady-glo luciferase reporter gene assay. The series is classed as cell-based. Background: In a reporter assay the amount or activity of a reporter protein is the signal.

With `O=C(O)[C@H]1CCCC[C@H]1C(=O)N1CCc2ccccc2[C@H]1CN1C(=O)c2ccccc2C1=O`, the Kp uu in series [1] is 0.4; in series [2], < 0.01.

The term IC50 denotes the concentration that inhibits the measured activity by half. A higher IC50 goes with weaker potency in that assay. One may read the EC50 as the concentration that produces a half-maximal response. The molecule `CCCC[C@@H]1CCCN1C(=O)c1cccc(-c2cccc(-n3ncc(C(=O)O)c3C3CC3)c2)c1` registered an IC50 in series [3] of 10 to 100 nM. In series [4], the EC50 came to 79 nM.

As to `C[C@H](Oc1cccc(-c2cccc(-n3ncc(C(=O)O)c3[C@@H]3C[C@H]3c3cn(C)nn3)c2)c1)C1CCCCC1`, the IC50 in series [5] was < 10 nM.

The efflux ratio is the permeability from basolateral to apical divided by that in the opposite direction, in the common usage. As for `O=C(O)[C@H]1CCCC[C@H]1C(=O)N1CCc2ccccc2[C@H]1CN1Cc2ccccc2C1=O`, in series [6], the efflux ratio at 2 h, 10 µM was 7.5. The IC50 in series [7] was found to be 1100 nM.

On to `O=C1c2ccccc2C(=O)N1C[C@@H]1c2ccccc2CCN1C(=O)C1CCCCC1`, for which the efflux ratio at 2 h, 10 µM in series [6] turned out to be 0.7. For the same molecule, the IC50 in series [7] was > 100000 nM. The Kp uu in series [2] is 0.3.

Consider `O=C(NCc1ccccn1)Nc1nnc(-c2ccco2)o1`, for which, in series [8], the EC2 was determined as 1.36 µM.

`O=C(O)[C@H]1CCCC[C@H]1C(=O)N1CCc2ccccc2[C@H]1Cc1ccccc1`: the efflux ratio at 2 h, 10 µM in series [6] is 0.7. The IC50 in series [7] was > 100000 nM. Besides, the Kp uu in series [2] worked out at 0.9.

Consider `O=C(O)[C@H]1NCCC[C@H]1C(=O)N1CCc2ccccc2[C@H]1CN1C(=O)c2ccccc2C1=O`, for which, in series [2], the Kp uu was < 0.01.
